Here are results for 51 molecules from PubChem BioAssay AID1996.

Values after ≈ are worked out from the molar mass of the structure shown. Some results are limits rather than exact numbers.

In general, kinetic solubility refers to the concentration staying in solution when a stock, usually in DMSO, is diluted into the medium.

For the data set the following is noted: buffer; pH 7.4; 200.0 µM.
In turn, `COc1ccc(-n2c(O)c(C(C)=NCC3CCCO3)c(=O)[nH]c2=O)cc1` (stereo unspecified) yielded a solubility (kinetic) of 51.5 µg/mL (≈ 143 µM).
With `Cc1c(C(=O)Nc2ccccc2)cc(-c2ccccc2)n1CCCN1CCOCC1` the figure was 36.8 µg/mL (≈ 91.2 µM); with `COc1cc(/C=C2/SC(=O)NC2=O)ccc1OCc1ccccc1`, less than 0.7 µg/mL.
With `COc1ccc(OC(=O)/C=C/c2ccc([N+](=O)[O-])cc2)cc1` the figure was less than 0.6 µg/mL; with `COc1ccc(/C(N)=N/OC(=O)CC2CCCCC2)cc1OC`, 19.1 µg/mL (≈ 59.6 µM); with `COc1ccc2c(c1)c1ncn(CC3CCCO3)c(=O)c1n2C` (stereo unspecified), 38.6 µg/mL (≈ 123 µM).
The molecule `CCc1ccc2nc(N(CCN(C)C)C(=O)/C=C/c3cccs3)sc2c1.Cl` showed a solubility (kinetic) of less than 0.3 µg/mL.
`O=C(Nc1ccc(C(F)(F)F)cn1)Nc1cccs1` showed a solubility (kinetic) of 0.8 µg/mL (≈ 2.78 µM).
With `COC(=O)c1ccc(NC(=O)C(=O)c2cccn2C)cc1` the figure was 3.2 µg/mL (≈ 11.2 µM); with `CN(C)CCCNc1c2ccccc2nc2ccccc12`, greater than 41.9 µg/mL; with `CC1=C(C)/C(=N\OS(=O)(=O)c2ccc(C)cc2)C=CC1=O`, 3.5 µg/mL (≈ 11.5 µM).
`N#CCCN(Cc1ccccc1)C(=O)Nc1ccccc1` showed a solubility (kinetic) greater than 41.9 µg/mL.
Regarding `COc1ccc(CCNC(=O)COC(=O)c2cncc(Br)c2)cc1OC`, the kinetic solubility was greater than 63.5 µg/mL.
With `CCN(C(=O)COC(=O)CCC(=O)c1cccs1)C1CCCCC1` the figure was greater than 52.7 µg/mL.
With `CC1(C)Cc2c(sc3nc(SCC(=O)O)nc(N)c23)CO1` the figure was greater than 48.8 µg/mL.
With `CCOC(=O)N1CCC(N2CCN(c3ccccc3)CC2)CC1.Cl` the figure was 51.1 µg/mL; with `COc1cc(Cl)cc(/C=C/c2ccc3cccc(O)c3n2)c1OC`, less than 0.7 µg/mL; with `CC(C)C(=O)Nc1csc(C(F)(F)F)c1-c1ccccc1`, 12.8 µg/mL (≈ 40.8 µM).
The molecule `CC(=O)c1cccc(NC(=O)C(C)OC(=O)C2=NNC(=O)CC2)c1` (stereo unspecified) yielded a kinetic solubility greater than 49.7 µg/mL.
With `CC(=O)c1cccc(NC(=O)COC(=O)CCC(=O)c2ccc(F)cc2)c1` the figure was 53.9 µg/mL (≈ 145 µM).
With `O=C(O)c1cc(O)ccc1NC(=O)C(c1ccccc1)c1ccccc1` the figure was greater than 52.1 µg/mL; with `CC(=O)c1ccc(NC(=O)N2C[C@H]3C[C@@H](C2)c2cccc(=O)n2C3)cc1`, greater than 52.7 µg/mL.
With `O=C(Nc1ccccc1N1CCOCC1)c1ccc2c(c1)OCO2` the figure was 4.7 µg/mL (≈ 14.4 µM); with `CN(C)CCC(=O)C(Cc1ccccc1)c1ccccc1.Cl` (stereo unspecified), 44.7 µg/mL; with `Cc1ccc(S(=O)(=O)N(C)C)cc1NC(=O)COC(=O)COc1ccc2c(C)cc(=O)oc2c1`, greater than 73.3 µg/mL.
`c1ccc(-n2cccc2)c(N2CCCCC2)c1` yielded a solubility (kinetic) of less than 0.2 µg/mL.
With `CON(C)S(=O)(=O)c1cccc(C(=O)N(CC(=O)Nc2ccccc2C(F)(F)F)Cc2ccco2)c1` the figure was 50.2 µg/mL (≈ 95.5 µM).
With `Cc1ccccc1C(=O)NC(=S)N(C)CCc1ccccn1` the figure was greater than 47 µg/mL.
With `COc1ccc(S(=O)(=O)NCCNC(=O)N2CCOCC2)cc1` the figure was greater than 51.5 µg/mL; with `CCOc1ccc2[nH]c3c(N4CCC5(CC4)OCCO5)ncnc3c2c1`, 4 µg/mL (≈ 11.3 µM); with `Cc1cc2ccccn2c1C(=O)c1ccccc1Br`, 8.1 µg/mL (≈ 25.8 µM).
Regarding `CC1(C)C2C/C(=N\O)C(C)(/[N+]([O-])=C/c3cccc([N+](=O)[O-])c3)CC21` (stereo unspecified), the kinetic solubility turned out to be 45.2 µg/mL (≈ 136 µM).
With `CC(=O)NC(Cc1c[nH]c2ccccc12)C(=O)NCCc1ccccn1` (stereo unspecified) the figure was greater than 52.6 µg/mL; with `Cc1ccc(N2CCN(C(=O)Nc3cccc([N+](=O)[O-])c3)CC2C)cc1` (stereo unspecified), 22 µg/mL (≈ 62.1 µM); with `Cc1noc(C)c1S(=O)(=O)Nc1ccc(C#N)cc1`, greater than 41.6 µg/mL.
With `CS(=O)(=O)N(CC(=O)N1CCCCC1)Cc1ccccc1` the figure was greater than 46.6 µg/mL; with `CCCN(CCC)C(=O)Nc1ccc(F)cc1F`, greater than 38.4 µg/mL.
Molecule `COC(=O)c1cc(C)sc1NC(=O)CSc1ncccn1` came in with a solubility (kinetic) of 44 µg/mL (≈ 136 µM).
With `COCCNC(=S)Nc1ccccn1` the figure was greater than 31.7 µg/mL; with `Cc1ccc(NC(=O)C2CCN(C(=O)c3ccco3)CC2)cc1C`, 45.1 µg/mL (≈ 138 µM); with `COC(=O)c1ccc(N2CCN(C)CC2)c(NC(=O)c2cccnc2)c1`, 51.4 µg/mL (≈ 145 µM).
With `COc1ccccc1C(=O)NC1CCCc2ccccc21` (stereo unspecified) the figure was 33.2 µg/mL (≈ 118 µM).
With `CC(C)n1c(SCC(=O)Nc2nncs2)nnc1C1CC1` the figure was greater than 48.7 µg/mL; with `O=C(NC(=S)Nc1ccc(CN2CCOCC2)cc1)c1ccco1`, greater than 51.8 µg/mL; with `O=C(O)c1cccc(S(=O)(=O)Nc2ccc(N3CCCCC3)cc2)c1`, greater than 54.1 µg/mL.
In turn, `COC(=O)c1ccc(N=CC2=C(O)CC(c3ccccc3)CC2=O)cc1` (stereo unspecified) registered a solubility (kinetic) of 2.1 µg/mL (≈ 6.01 µM).
With `COc1ccc(NC(=S)N(CCO)Cc2ccccc2)cc1` the figure was 44.7 µg/mL (≈ 141 µM).
With `O=C(NCCCc1ccccc1)c1ccc(F)cc1` the figure was greater than 38.6 µg/mL; with `Cc1cc2nc(C(C)(C)C)cc(N)n2n1`, greater than 30.6 µg/mL.
With `N#CCC(=O)N1CCN(Cc2ccc3c(c2)OCO3)CC1` the figure was 1.6 µg/mL (≈ 5.57 µM).
The molecule `C=CCOc1ccccc1CN1CCC(Cc2ccccc2)CC1` came in with a kinetic solubility of 31.7 µg/mL (≈ 98.6 µM).
